L-cysteine dissolved data for one molecule are collected here from patent US20160022620A1, “ENCAPSULATED COMPOSITION FOR BINDING ALDEHYDES IN THE STOMACH” (BIOHIT OYJ, priority 2013, published 2016).

The nature of this series: Dissolution test for the capsules (USP I method, pH 1.2 HCl buffer). It is filed as physicochemical. The conditions noted are these: not granulated; in 5 minutes. On the procedure:
Dissolution tests were carried out on the capsules of Example 1 according to the USP I method (USP 24) (The United States Pharmacopeia 2001). A standard curve was prepared between 0.01 and 0.6 mg/ml ([…], r^2=0.9999). The medium used was 500 ml of pH 1.2 HCl buffer. The rotation rate of the baskets was 100 rpm, and the temperature of the medium was +37° C. (±0.5). Samples were taken at 5-minute intervals for the first half hour and thereafter at 10-minute intervals for the remaining 2 hours. L-cysteine was detected in flow-through cells (10 mm) at a wavelength of 213 nm. The results were calculated by using dissolution software. The system was equipped with a bath and a pump (Sotax AT7 UV Dissolution System, Stax, Allschwil, Switzerland) and a spectrophotometer (PerkinElmer, Lambda 25, PerkinElmer, Inc., Waltham, Mass.), the software used for the test and for calculating the results was WinSotax (Sotax). […] When not granulated, the L-cysteine was dissolved rapidly (100% in 5 minutes).

Each structure is given as a SMILES string.

In the case of `N[C@@H](CS)C(=O)O` [L-cysteine], the L-cysteine dissolved stood at 100%.
